Results published in patent US9493420B2, “Quinoline derivatives and uses thereof” (Portland State University, priority 2005, dated 2016).

Assays:
[1] = target: T1, recombinant human norepinephrine (hNET) transporter (Homo sapiens, UniProt P23975); experiment: Inhibition of [3H]neurotransmitter uptake, hNET; type: cell-based
T1 construct: expressed in transfected cells; host or cells: HEK cells expressing hNET
Protocol: Selected RCQs were tested for inhibition of [^3H]neurotransmitter uptake by the recombinant human serotonin (hSERT), dopamine (HEK-hDAT), and norepinephrine (hNET) transporters by a modification of the method of Eshleman et al. (J. Pharmacol. Exp. Ther., 289(2):877-885, 1999). HEK-hDAT, hSERT, and -hNET expressing cells were grown on tissue culture dishes. After removing the medium and washing the plates with Ca^2+-, Mg^2+-free phosphate buffered saline (PBS), fresh medium was added and the plates were placed in a 25° C. water bath for 5 minutes. Cells were gently lifted from the plates and cell clusters separated by trituration. 50 μL aliquots of the suspended cells were added to assay tubes containing drugs and Krebs-HEPES assay buffer in a final volume of 0.5 mL.
Competition experiments were conducted in triplicate. After a 10 minute preincubation period at 25° C., [^3H]neurotransmitter (20 nM final concentration; [^3H]DA, [^3H]5-HT, or [^3H]NE) were added, and the mixtures incubated for 10 minutes. Reactions were terminated by filtration through Wallac filtermat A filters (presoaked in 0.05% polyethylenimine), using a Tomtec cell harvester. Scintillation fluid was added to each filtered spot, and radioactivity remaining on the filters determined using a Wallac 1205 Betaplate scintillation counter.
Specific uptake was defined as the difference in uptake observed in the absence and presence of 5 μM mazindol (hDAT and hNET) or 5 μM imipramine (hSERT). Inhibition of uptake was determined by non-linear regression using Prism software.

[2] = Adverse side effects in treated mice of the 4-day suppressive test; type: in vivo; details: 64, 32, 16 mg/kg oral gavage once per day for four days; CF-1 mice
From the text: A variation of the 4-day suppressive test described by Peters (Ann. Trop. Med. Parasitol., 69(2):155-171, 1975) was used to test the in vivo effectiveness of RCQ_02 as a treatment for Plasmodium sp. infection. Briefly, P. chabaudi parasites (Mackinnon and Read, Philos. Trans. R. Soc. Lond. B Biol. Sci., 359:965-986, 2004) were collected from a donor animal harboring approximately 20% parasitemia. Sixteen (16) male CF-1 mice at 4-5 weeks of age (approximately 20 g) were infected with approximately 10^7 infected red blood cells via 100 μL tail vein injection. The infected mice were randomly sorted into groups of 4 mice each on day 0. One hour after infection, each group of four mice received 64, 32, 16, or 0 mg/kg RCQ_02 via oral gavage once per day for four days. After the treatment course, the animals were weighed and blood collected for the determination of parasite burden via direct microscopic analysis of Giemsa-stained blood smears. Mice treated with 64 mg/kg RCQ_02 were all cleared of parasites to >99% by day 4.

[3] = Heme binding by UV-VIS spectrophotometric titration (association constant); details: pH 5.7; heme assumed dimeric (μ-oxo)
From the text: Optionally, heme binding of RCQ compounds can be determined by any method known in the art, including, for example, spectrophotometric methods, like UV-VIS spectroscopy or NMR spectroscopy. Methods of measuring heme binding to a variety of molecules using the UV-VIS spectrum have been described (see, e.g., Xu et al., J. Inorg. Biochem., 86 (2-3):617-625, 2001; Xu et al., Antimicrob. Agents Chemother., 46(1):144-150, 2002). Generally, a heme-binding compound (such as a disclosed RCQ) is mixed in increasing concentration with heme (or a heme model compound, such as porphyrin or metalloporphyrin) and the absorbance spectrum is measured from the ultraviolet region well into the visible region (from about 300 nm to about 750 nm). This spectral range includes the so-called Soret and Q-band regions that arise from porphyrin or metalloporphyrin absorbance. Upon interaction between a heme-binding compound and heme (or a heme model compound, such as porphyrin or metalloporphyrin), decreased absorbance in the Soret region is observed. […]
In particular examples, the formation of heme-RCQ complexes can be determined by UV-VIS spectrophotometric titration, using a variety of commercially available spectrophotometers (such as a Varian-Cary 3E spectrophotometer). […] Optionally, pH can be monitored throughout the procedure to ensure that it remains unchanged. […]

T1 sequence (P23975 whole entry): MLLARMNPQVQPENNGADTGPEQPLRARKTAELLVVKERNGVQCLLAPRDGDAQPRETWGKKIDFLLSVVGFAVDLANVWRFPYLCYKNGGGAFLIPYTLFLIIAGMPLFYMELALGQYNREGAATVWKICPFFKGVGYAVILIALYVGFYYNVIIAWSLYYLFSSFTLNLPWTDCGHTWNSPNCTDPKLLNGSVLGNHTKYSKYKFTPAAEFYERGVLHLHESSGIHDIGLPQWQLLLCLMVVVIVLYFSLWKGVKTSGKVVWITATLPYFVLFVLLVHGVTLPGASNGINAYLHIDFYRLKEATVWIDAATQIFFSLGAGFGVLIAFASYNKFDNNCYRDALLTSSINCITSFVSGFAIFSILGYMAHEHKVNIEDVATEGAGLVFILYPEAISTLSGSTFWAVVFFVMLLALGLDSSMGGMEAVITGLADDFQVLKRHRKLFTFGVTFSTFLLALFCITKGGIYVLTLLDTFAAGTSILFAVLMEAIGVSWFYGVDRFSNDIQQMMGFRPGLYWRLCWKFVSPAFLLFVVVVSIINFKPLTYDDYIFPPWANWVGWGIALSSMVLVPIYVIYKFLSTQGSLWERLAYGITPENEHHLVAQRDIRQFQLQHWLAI

CN(CCCNc1ccnc2cc(Cl)ccc12)CCCN1c2ccccc2CCc2ccccc21 [RCQ_02, N′-(7-Chloro-quinolin-4-yl)-N-[3-(10,11-dihydro-dibenzo[b,f]azepin-5-yl)-propyl]-N-methyl-propane-1,3-diamine]
IC50 [1]: 350 nM | adverse side effects (weight loss, reduced eating, reduced activity, ruffled ungroomed fur) [2]: none of the treated mice showed any adverse side effects | heme2.RCQ_02 association constant [3]: approximately 7.5×10^5 M^−1
